From patent US20240189389A1, “DRUG WITH PROLONGED ANALGESIC ACTION” (priority 2020, published 2024)

Experiments:
[1] = reduced only in part with repeated dosing; cited from earlier work
ICR male white mice = test: Formalin test on mice; type: in vivo; details: oral, 100 mg/kg (positive control)
Description: Tests are performed on ICR male white mice of 20-30 g body weight. Mice are divided into 4 groups (a control one and experimental ones) of 9 mice each. The tested HCRG21 peptide is dissolved in a sterile physiological saline solution and is administered intramuscularly at the doses of 0.1 and 1.0 mg/kg. Control animals receive the equivalent volume of sterile physiological saline solution. Ibuprofen at the dose of 100 mg/kg is used as a positive control and is administered to animals orally. 60 minutes later all mice are injected in a hinder paw pad with 20 μl of 2.5% formalin solution. Patterns of pain response are recorded immediately after the injection (a number of paw licking episodes and a hind paw withdrawal time) according to the following schedule:
1st period (acute): for 20 min after the injection patterns are recorded per 1 min with 6-minute intervals (0, 6, 12 and 18 min);
2nd period (tonic): 30 min after the formalin injection patterns are recorded for 20 min per 1 min with 6-minute intervals (30, 36, 42, 48 min).
The analgesic effect is evaluated by the decrease of the duration of pain response patterns relative to control animals (FIG. 9). The results are statistically processed, statistical significance of differences of the results of control and experimental group is determined using the Student's test.

[2] = phase I clinical trial data; cited from earlier work
TRPV1 = biological target: T1, TRPV1 (Homo sapiens, UniProt Q8NER1); details: high dose (400 mg); cited from earlier work
T1 construct: host or cells: human subjects (in vivo)
T1 sequence (Q8NER1 whole entry): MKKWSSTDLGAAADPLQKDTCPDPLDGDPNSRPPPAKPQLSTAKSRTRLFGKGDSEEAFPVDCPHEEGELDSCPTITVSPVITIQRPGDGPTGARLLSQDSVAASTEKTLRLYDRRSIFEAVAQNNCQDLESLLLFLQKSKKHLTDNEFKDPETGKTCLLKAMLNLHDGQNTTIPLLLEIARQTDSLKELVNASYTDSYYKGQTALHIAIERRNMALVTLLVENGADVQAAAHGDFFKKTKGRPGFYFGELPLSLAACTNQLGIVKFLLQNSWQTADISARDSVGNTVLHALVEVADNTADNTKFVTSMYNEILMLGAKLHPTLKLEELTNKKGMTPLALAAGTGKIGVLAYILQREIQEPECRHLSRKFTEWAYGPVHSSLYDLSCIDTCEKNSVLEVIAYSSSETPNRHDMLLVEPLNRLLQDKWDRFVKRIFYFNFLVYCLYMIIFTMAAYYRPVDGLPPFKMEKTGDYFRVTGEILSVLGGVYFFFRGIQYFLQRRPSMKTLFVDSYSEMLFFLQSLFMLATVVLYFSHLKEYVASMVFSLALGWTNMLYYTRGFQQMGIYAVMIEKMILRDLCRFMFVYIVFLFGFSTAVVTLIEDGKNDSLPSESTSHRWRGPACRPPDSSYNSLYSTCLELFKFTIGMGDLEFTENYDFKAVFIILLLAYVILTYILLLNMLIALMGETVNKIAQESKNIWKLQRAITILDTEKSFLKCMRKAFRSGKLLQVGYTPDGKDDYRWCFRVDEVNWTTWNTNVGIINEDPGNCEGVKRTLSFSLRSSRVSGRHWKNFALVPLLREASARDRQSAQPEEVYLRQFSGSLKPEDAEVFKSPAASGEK

CC(=O)Nc1nc2c(Oc3cc(-c4ccc(C(F)(F)F)cc4)ncn3)cccc2s1 [AMG-517]
temperature increase in humans [1]: high and steady temperature increase

CC(C)Cc1ccc(C(C)C(=O)O)cc1 (stereo not shown) [Ibuprofen, ibuprofen]
analgesic properties compared with HCRG21 (ICR male white mice): concedes much to the HCRG21 peptide

O=C(Nc1ccccc1Br)N[C@@H]1CCN(c2ccc(C(F)(F)F)cn2)C1 [SB-705498]
elimination half-life [2]: 35 to 93 h
pharmacodynamic activity in the reduction of inflammation induced by heat injuries, UV radiation and capsaicin (TRPV1): evidences a target pharmacodynamic activity
